The numbers were not newly measured in patent US12678540B2, “Chimeric peptide-modified SIS membrane, preparation method therefor and application thereof” (Beijing Biosis Healing Biological Technology Co., Ltd., priority 2021, dated 2026), which cites them from elsewhere.

The subject of the series is fibroblasts, epithelial cells and endothelial cells.

With “Hst1: member of the histatins (HSTs); sequence SHREFPFYGDYGS contains minimal elements to promote cell migration”, the “migration or adhesion of fibroblasts, epithelial cells and endothelial cells” value is “promote the migration or adhesion”.
